{
  "source": "patent US20090233868A1",
  "about": "“Small antiviral peptides against hepatitis C virus” (priority 2005, published 2009)",
  "key": {"[1]": {"test_system": "HCV IRES RNA", "assay": "UV-crosslinking assay with [32P] labeled HCV IRES RNA", "assay_type": "binding, hepatitis C virus", "settings": "2 μM and 4 μM peptide; FIG. 6A"}, "[2]": {"test_system": "Huh7 cells", "assay": "Internalization of fluorescein labeled hexa-arginine-tagged peptides", "assay_type": "cell-based", "settings": "fluorescein tagged peptide, 3 hours incubation; FIG. 6B"}, "[3]": {"test_system": "HCV IRES mediated translation", "assay": "HCV bicistronic construct luciferase assay in Huh7 cells with arginine-tagged peptides", "assay_type": "cell-based, hepatitis C virus", "settings": "2 μM peptide, 4 hours or 6 hours"}, "[4]": {"test_system": "HCV monocistronic replicon", "assay": "HCV negative strand real time PCR in Huh7 cells harboring HCV monocistronic replicon", "assay_type": "cell-based, hepatitis C virus"}, "[5]": {"test_system": "HCV IRES mediated translation", "assay": "In vitro translation of uncapped HCV-IRES-Luc monocistronic RNA in rabbit reticulocyte lysate", "assay_type": "biochemical, hepatitis C virus", "settings": "RRL; for IC50: uncapped HCV IRES-Luc RNA, data not shown, read-out: IC50 for inhibition of HCV IRES mediated translation"}, "[6]": {"test_system": "cap-dependent translation", "assay": "In vitro translation of capped Luciferase RNA in RRL", "assay_type": "biochemical, rabbit", "settings": "15, 30, 60 μM peptide; FIG. 5C"}, "[7]": {"test_system": "IRES mediated translation of hepatitis A virus", "assay_type": "biochemical"}, "[8]": {"test_system": "Polio virus IRES function", "assay_type": "biochemical", "settings": "at higher concentration (15, 30, 60 μM tested); FIG. 5E"}, "[9]": {"test_system": "HCV IRES mediated translation", "assay": "In vitro translation of capped HCV bicistronic RNA in RRL", "settings": "15, 30, 60 μM peptide; FIG. 5D"}},
  "note": "Where no end group is shown, it is not given here.",
  "data": [
    {"substance": "RRRRRRKYKETDL [Arg-LaR2C-N7]", "values": [
      {"measurement": "RNA binding activity of hexa-arginine tagged peptides (UV cross-linking)", "setting": "[1]", "value": "showed RNA binding activity"},
      {"measurement": "Internalization into Huh7 cells (fluorescence microscope)", "setting": "[2]", "value": "internalized inside Huh7 cells"},
      {"measurement": "Inhibition of HCV IRES mediated translation over the control in Huh7 cells", "setting": "[3]", "value": "up to 70%"},
      {"measurement": "Decrease in levels of HCV negative strand RNAs compared to untreated cells", "setting": "[4]; 4 μM peptide added at 0 and 12th hour, RNA at 24th hour", "value": "~50", "unit": "%"},
      {"measurement": "Inhibitory activity on HCV negative strand synthesis", "setting": "[4]; 10 μM peptide, data not shown", "value": "considerable increase in the inhibitory activity"}
    ]},
    {"substance": "KYKETDL [LaR2C-N7]", "values": [
      {"measurement": "IC50", "setting": "[5]", "value": "~40", "unit": "µM"},
      {"measurement": "Translation inhibitory activity on HCV IRES-Luc RNA", "setting": "[5]; 30 and 60 μM (FIG. 3C) or 15, 30 and 60 μM (FIG. 5A, 5B)", "value": "only slightly weaker than the 24-mer peptide"},
      {"measurement": "Inhibition of capped-Luciferase RNA translation (cap-dependent)", "setting": "[6]", "value": "did not show significant inhibition"},
      {"measurement": "Inhibition of IRES mediated translation of hepatitis A virus", "setting": "[7]", "value": "failed to inhibit"},
      {"measurement": "Inhibition of Polio virus IRES function", "setting": "[8]", "value": "significant inhibition"},
      {"measurement": "Inhibition of HCV IRES (Fluc) vs cap dependent (Rluc) translation of bicistronic RNA", "setting": "[9]", "value": "selective inhibition of HCV IRES mediated translation"}
    ]},
    {"substance": "KYKETDLLILFKDDYFAKKNEERK [LaR2C]", "values": [
      {"measurement": "IC50", "setting": "[5]", "value": 30, "unit": "µM"}
    ]}
  ]
}
